Assay results published in patent publication EP0400686A1, “2-Amino-9-[1,3bis-(isopropoxy)-propyl-2-oxymethyl]-purine, its utilization and medicaments containing it” (HOECHST AKTIENGESELLSCHAFT, priority 1985, dated 1987).

System: Herpes simplex Typ 1
Test: In vivo test: NMRI mice infected intraperitoneally with Herpes simplex type 1, treated i.p. twice daily for 5 days, survival rate
Settings: Herpes simplex Typ 1 an der NMRI-Maus
From the text: NMRI-Mäuse, spezifisch pathogenfrei, im Gewicht von etwa 15 g wurden intraperitoneal mit Herpes simplex Typ 1 infiziert und anschließend mit den beschriebenen Verbindungen intraperitoneal therapiert. Als Vergleich diente stets Acyclovir (ACV). Die Behandlung erfolgte zweimal täglich über 5 Tage, beginnend nach der Infektion. Der Behandlungserfolg wurde anhand des Krankheitsverlaufes und der Überlebensrate gegenüber den unbehandelten Infektionskontrollen bestimmt. Letztere erhielten anstelle der zu prüfenden Verbindungen eine wasserlösliche Methylhydroxyäthylcellulose (Viskosität […] in 2 %iger Lösung) (^(R)Tylose MH 300 P) appliziert.
Die chemaotherapeutische Wirkung erfindungsgemäßer Verbindungen ist aus Tabelle 1 ersichtlich.

[1] = Dosierung 10 x 0,2 mg/Maus i.p.
[2] = Dosierung 10 x 0,6 mg/Maus i.p.

| Compound | Mittlere Überlebensrate x/10 [1] | Mittlere Überlebensrate x/10 [2] |
| --- | --- | --- |
| CC(=O)OCC(CN=[N+]=[N-])OCn1cnc2c(=O)[nH]c(N)nc21 (racemic) [Verbindung 9, 9-(1-Azidomethyl-2-acetoxyäthoxymethyl)-guanin] | 9/10 | 9/10 |
| CC(=O)OCC(COC(C)C)OCn1cnc2c(=O)[nH]c(N)nc21 (racemic) [Verbindung 20, 9-(1-Isopropoxymethyl-2-acetoxyäthoxymethyl)-guanin] | 10/10 | 10/10 |
